According to patent US5359063A, “Heterocyclene derivatives” (Imperial Chemical Industries PLC, priority 1990, dated 1994):

Assays:
[1] = system: 5-LO; experiment: Test b) LTB4 in heparinised human blood challenged with calcium ionophore A23187 (radioimmunoassay); type: cell-based
Method: b) An in vitro assay system involving incubating a test compound with heparinised human blood, prior to challenge with the calcium ionophore A23187 and then indirectly measuring the inhibitory effects on 5-LO by assaying the amount of LTB4 using specific radioimmunoassays described by Carey and Forder (F. Carey and R. A. Forder, Prostaglandins, Leukotrienes Med., 1986, 22, 57; Prostaglandins, 1984, 28, 666; Brit. J. Pharmacol. 1985, 84, 34P) which involve the use of a protein-LTB4 conjugate produced using the procedure of Young et alia (Prostaglandins, 1983, 26(4), 605-613). The effects of a test compound on the enzyme cyclooxygenase (which is involved in the alternative metabolic pathway for arachidonic acid and gives rise to prostaglandins, thromboxanes and related metabolites) may be measured at the same time using the specific radioimmunoassay for thromboxane B2 (TxB2) described by Carey and Forder (see above). This test provides an indication of the effects of a test compound against 5-LO and also cyclooxygenase in the presence of blood cells and proteins. It permits the selectivity of the inhibitory effect on 5-LO or cyclooxygenase to be assessed.

[2] = system: 5-LO; experiment: Test g) LTB4 liberation induced by zymosan within an air pouch in male rats; type: in vivo; conditions: 3 h; test g), rat air pouch, oral
Method: g) An in vivo system involving measuring the effects of a test compound administered orally against the liberation of LTB4 induced by zymosan within an air pouch generated within the subcutaneous tissue of the back of male rats. The rats are anaesthetised and air pouches are formed by the injection of sterile air (20 ml). A further injection of air (10 ml) is similarIv given after 3 days. At 6 days after the initial air injection the test compound is administered (usually orally as the suspension produced when a solution of the test compound in dimethylsulphoxide is added to hydroxypropylmethylcellulose), followed by the intrapouch injection of zymosan (1 ml of a 1% suspension in physiological saline). After 3 hours the rats are killed, the air pouches are lavaged with physiological saline, and the specific radioimmunoassay described above is used to assay LTB4 in the washings. This test provides an indication of inhibitory effects against 5-LO in an inflammatory milieu.

| IC50 [1] [nM] | SMILES | ED50 [2] [mg/kg] |
| --- | --- | --- |
| 150 | COC1(c2ccc(Sc3ccc(C(C)(C)C)cc3)s2)CCOCC1 [4-[5-(4-tert-butylphenylthio)thien-2-yl]-4-methoxytetrahydropyran] | 1.5 |
| 40 | COC1(c2ccc(Sc3ccc4c(c3)CCC(=O)N4C)s2)CCOCC1 [4-methoxy-4-[5-(1-methyl-2-oxo-1,2,3,4-tetrahydroquinolin-6-ylthio)thien-2-yl]tetrahydropyran] | < 1.5 |
